Reference: patent publication US20060069132A1, “Azolecarboxamide herbicides” (priority 2004, published 2006)

Assays:
barnyardgrass [1] = test: Test B pre-/postemergence herbicide test; type: in vivo, Echinochloa crus-galli; conditions: for Plant response rating (0 to 100 scale), Barnyardgrass: 0 is no effect, preemergence
Procedure, shortened: (§1)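 Response was scored visually 13 to 15 days after treatment against untreated greenhouse controls, 0 meaning no effect and 100 complete control. Formulations (solvent mixture plus surfactant) went onto soil after planting, onto foliage of 1- to 4-leaf plants, and onto 2-leaf plants in a flooded paddy set including rice and barnyardgrass.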

Surinam grass = test: Test B pre-/postemergence herbicide test; type: in vivo, Urochloa decumbens; conditions: for Plant response rating (0 to 100 scale), Surinam Grass: 0 is no effect, 100 is complete control, preemergence; for Surinam Grass plant response rating: scale 0 (no effect) to 100 (complete control)
Procedure, shortened: (§2)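 Visual rating, 0 (no effect) to 100 (complete control), versus untreated controls after 13–15 d in greenhouse. Pre- and postemergence applications (postemergence plants 2–18 cm, 1–4 leaves); flooded paddy arm at 2-leaf stage. Compounds in non-phytotoxic solvent plus surfactant.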

cocklebur = test: Test B pre-/postemergence herbicide test; type: in vivo, Xanthium strumarium; conditions: for Plant response rating (0 to 100 scale), Cocklebur: 0 is no effect, preemergence
Procedure, shortened: as §1

corn = test: Test B pre-/postemergence herbicide test; type: in vivo, Zea mays; conditions: for Plant response rating (0 to 100 scale), Corn: 0 is no effect, preemergence
Procedure, shortened: as §2

large crabgrass = test: Test B pre-/postemergence herbicide test; type: in vivo, Digitaria sanguinalis; conditions: for Plant response rating (0 to 100 scale), Crabgrass, Large: 0 is no effect, preemergence
Procedure, shortened: as §2

giant foxtail = test: Test B pre-/postemergence herbicide test; type: in vivo, Setaria faberi; conditions: for Plant response rating (0 to 100 scale), Foxtail, Giant: 0 is no effect, preemergence
Procedure, shortened: as §2

lambsquarters = test: Test B pre-/postemergence herbicide test; type: in vivo, Chenopodium album; conditions: for Plant response rating (0 to 100 scale), Lambsquarters: 0 is no effect, 100 is complete control, preemergence; for Lambsquarters plant response rating: scale 0 (no effect) to 100 (complete control)
Procedure, shortened: as §2

morningglory = test: Test B pre-/postemergence herbicide test; type: in vivo, Ipomoea coccinea; conditions: for Plant response rating (0 to 100 scale), Morningglory: 0 is no effect, 100 is complete control, preemergence; for Morningglory plant response rating: scale 0 (no effect) to 100 (complete control)
Procedure, shortened: as §1

pigweed = test: Test B pre-/postemergence herbicide test; type: in vivo, Amaranthus retroflexus; conditions: for Plant response rating (0 to 100 scale), Pigweed: 0 is no effect, 100 is complete control, preemergence; for Pigweed plant response rating: scale 0 (no effect) to 100 (complete control)
Procedure, shortened: as §2

velvetleaf = test: Test B pre-/postemergence herbicide test; type: in vivo, Abutilon theophrasti; conditions: for Plant response rating (0 to 100 scale), Velvetleaf: 0 is no effect, 100 is complete control, preemergence; for Velvetleaf plant response rating: scale 0 (no effect) to 100 (complete control)
Procedure, shortened: as §2

blackgrass = test: Test B postemergence herbicide test; type: in vivo, Alopecurus myosuroides
Procedure, shortened: (§3)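 Visual control ratings, 0–100 versus untreated controls, taken after 13 to 15 days in the greenhouse. Blackgrass received a postemergence spray at the 1- to 4-leaf stage (2–18 cm); ducksalad, umbrella sedge and barnyardgrass were flooded-paddy treated at 2 leaves.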

wheat = test: Test B postemergence herbicide test; type: in vivo, Triticum aestivum; set-up: key to Wheat plant response rating: 0 = no effect, 100 = complete control
Procedure, shortened: (§4)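 Treated at 2-leaf (paddy) or 1–4-leaf, 2–18 cm (postemergence); greenhouse 13–15 d; visual score vs control, 0 none to 100 complete control; dash = not tested.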

wild oat = test: Test B postemergence herbicide test; type: in vivo, Avena fatua; conditions: scale 0 (no effect) to 100 (complete control)
Procedure, shortened: as §4

rice = test: Test B flooded paddy test; type: in vivo, Oryza sativa; conditions: 1000 g ai/ha, scale 0 to 100 (0 no effect, 100 complete control)
Procedure, shortened: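 Read-out: visual comparison with controls, scored 0 to 100, where 100 means complete control and 0 no effect. Formulated chemicals were applied postemergence to plants 2–18 cm tall (1- to 4-leaf), or to flooded-paddy plants at the 2-leaf stage, then held 13 to 15 days under glass.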

[2] = system: small flower umbrella sedge; test: Test B flooded paddy test; type: in vivo, Cyperus difformis; conditions: 1000 g ai/ha, scale 0 to 100 (0 no effect, 100 complete control)
Procedure, shortened: as §3

ducksalad = test: Test B flooded paddy test; type: in vivo, Heteranthera limosa; conditions: 1000 g ai/ha, scale 0 to 100 (0 no effect, 100 complete control)
Protocol: At the same time, plants selected from these crop and weed species and also blackgrass (Alopecurus myosuroides Huds.), wheat (Triticum aestivum L.) and wild oat (Avena fatua L.) were treated with postemergence applications of test chemicals formulated in the same manner. Plants ranged in height from 2 to 18 cm (1- to 4-leaf stage) for postemergence treatments. Plant species in the flooded paddy test consisted of rice (Oryza sativa L.), small flower umbrella sedge (Cyperus difformis L.), ducksalad (Heteranthera limosa (Sw.) Willd.) and barnyardgrass (Echinochloa crus-galli (L.) Beauv.) grown to the 2-leaf stage for testing. Treated plants and controls were maintained in a greenhouse for 13 to 15 days, after which time all species were compared to controls and visually evaluated. Plant response ratings, summarized in Table B, are based on a scale of 0 to 100 where 0 is no effect and 100 is complete control. A dash (-) response means no test result.

barnyardgrass [3] = test: Test B flooded paddy test; type: in vivo, Echinochloa crus-galli; conditions: 1000 g ai/ha, scale 0 to 100 (0 no effect, 100 complete control)
Procedure, shortened: as §3

[4] = 125 g ai/ha, 100 is complete control
[5] = 125 g ai/ha, visual rating, scale 0 (no effect) to 100 (complete control), postemergence
[6] = Postemergence, 500 g ai/ha, scale 0 (no effect) to 100 (complete control)
[7] = 125 g ai/ha, visual rating, postemergence
[8] = 500 g ai/ha, scale 0 to 100, 0 no effect, 100 complete control, preemergence
[9] = postemergence, 500 g ai/ha, scale 0 to 100, 0 is no effect, 100 is complete control

Structure (SMILES): CCN(C)C(=O)c1ccc(F)c(NC(=O)c2nn(C(C)C)nc2C)c1 [Compound 403]
- Plant response rating (0 to 100 scale), Barnyardgrass (barnyardgrass [1]; [4]): 0
- Barnyardgrass plant response rating (barnyardgrass [1]; [5]): 0
- Barnyardgrass plant response rating (barnyardgrass [1]; [6]): 0
- Plant response rating (0 to 100 scale), Surinam Grass (Surinam grass; 125 g ai/ha): 0
- Surinam Grass plant response rating (Surinam grass; [7]): 0
- Surinam Grass plant response rating (Surinam grass; Postemergence, 500 g ai/ha): 10
- Plant response rating (0 to 100 scale), Cocklebur (cocklebur; [4]): 0
- Cocklebur plant response rating (cocklebur; [5]): 0
- Cocklebur plant response rating (cocklebur; [6]): 0
- Plant response rating (0 to 100 scale), Corn (corn; [4]): 0
- Corn plant response rating (corn; [5]): 0
- Corn plant response rating (corn; [6]): 0
- Plant response rating (0 to 100 scale), Crabgrass, Large (large crabgrass; [4]): 0
- Crabgrass, Large plant response rating (large crabgrass; [5]): 0
- Crabgrass, Large plant response rating (large crabgrass; [6]): 0
- Plant response rating (0 to 100 scale), Foxtail, Giant (giant foxtail; [4]): 0
- Foxtail, Giant plant response rating (giant foxtail; [5]): 0
- Foxtail, Giant plant response rating (giant foxtail; [6]): 0
- Plant response rating (0 to 100 scale), Lambsquarters (lambsquarters; 125 g ai/ha): 0
- Lambsquarters plant response rating (lambsquarters; [7]): 0
- Lambsquarters plant response rating (lambsquarters; Postemergence, 500 g ai/ha): 10
- Plant response rating (0 to 100 scale), Morningglory (morningglory; 125 g ai/ha): 0
- Morningglory plant response rating (morningglory; [7]): 0
- Morningglory plant response rating (morningglory; Postemergence, 500 g ai/ha): 0
- Plant response rating (0 to 100 scale), Pigweed (pigweed; 125 g ai/ha): 0
- Pigweed plant response rating (pigweed; [7]): 0
- Pigweed plant response rating (pigweed; Postemergence, 500 g ai/ha): 0
- Plant response rating (0 to 100 scale), Velvetleaf (velvetleaf; 125 g ai/ha): 0
- Velvetleaf plant response rating (velvetleaf; [7]): 0
- Velvetleaf plant response rating (velvetleaf; Postemergence, 500 g ai/ha): 10
- Blackgrass plant response rating (blackgrass; [5]): 0
- Blackgrass plant response rating (blackgrass; [6]): 0
- Wheat plant response rating (wheat; [5]): 0
- Wheat plant response rating (wheat; [8]): 0
- Wheat plant response rating (wheat; [6]): 0
- Oat, Wild plant response rating (wild oat; [7]): 0
- Oat, Wild plant response rating (wild oat; Postemergence, 500 g ai/ha): 0
- Rice plant response rating (rice): 0
- Sedge, Umbrella plant response rating [2]: 10
- Ducksalad plant response rating (ducksalad): 0
- Barnyardgrass plant response rating (barnyardgrass [3]): 0

Structure (SMILES): CCNC(=O)c1ccc(F)c(NC(=O)c2nn(C(C)(C)C)nc2CC)c1 [Compound 362]
- Plant response rating (0 to 100 scale), Barnyardgrass (barnyardgrass [1]; [4]): 10
- Barnyardgrass plant response rating (barnyardgrass [1]; [5]): 0
- Barnyardgrass plant response rating (barnyardgrass [1]; [9]): 0
- Plant response rating (0 to 100 scale), Surinam Grass (Surinam grass; 125 g ai/ha): 10
- Surinam Grass plant response rating (Surinam grass; [7]): 10
- Plant response rating (0 to 100 scale), Cocklebur (cocklebur; [4]): 0
- Cocklebur plant response rating (cocklebur; [5]): 10
- Cocklebur plant response rating (cocklebur; [9]): 30
- Plant response rating (0 to 100 scale), Corn (corn; [4]): 0
- Corn plant response rating (corn; [5]): 0
- Corn plant response rating (corn; [9]): 0
- Plant response rating (0 to 100 scale), Crabgrass, Large (large crabgrass; [4]): 20
- Crabgrass, Large plant response rating (large crabgrass; [5]): 0
- Crabgrass, Large plant response rating (large crabgrass; [9]): 0
- Plant response rating (0 to 100 scale), Foxtail, Giant (giant foxtail; [4]): 10
- Foxtail, Giant plant response rating (giant foxtail; [5]): 10
- Foxtail, Giant plant response rating (giant foxtail; [9]): 10
- Plant response rating (0 to 100 scale), Lambsquarters (lambsquarters; 125 g ai/ha): 0
- Lambsquarters plant response rating (lambsquarters; [7]): 10
- Plant response rating (0 to 100 scale), Morningglory (morningglory; 125 g ai/ha): 0
- Morningglory plant response rating (morningglory; [7]): 10
- Plant response rating (0 to 100 scale), Pigweed (pigweed; 125 g ai/ha): 0
- Pigweed plant response rating (pigweed; [7]): 20
- Plant response rating (0 to 100 scale), Velvetleaf (velvetleaf; 125 g ai/ha): 0
- Velvetleaf plant response rating (velvetleaf; [7]): 0
- Blackgrass plant response rating (blackgrass; [5]): 10
- Blackgrass plant response rating (blackgrass; [9]): 20
- Wheat plant response rating (wheat; [5]): 0
- Wheat plant response rating (wheat; [8]): 30
- Oat, Wild plant response rating (wild oat; [7]): 20
- Rice plant response rating (rice): 60
- Sedge, Umbrella plant response rating [2]: 90
- Ducksalad plant response rating (ducksalad): 90
- Barnyardgrass plant response rating (barnyardgrass [3]): 50
